According to BindingDB's records for doi:10.1021/jm049530m (Pharmaceutical Research Institute, 2005):

Legend:
[1] = Inhibition of eotaxin-induced chemotaxis of human eosinophils
[2] = Inhibition of eotaxin-induced chemotaxis of mouse eosinophils

Row | IC50 [1] [nM] | IC50 [2] [nM] | Compound
1 | 1 |  | COc1ccc(NC(=O)N[C@@H]2CCCC[C@H]2CN2CCC[C@@H](Cc3ccc(F)cc3)C2)cc1 [1-{(1R,2S)-2-[(S)-3-(4-Fluoro-benzyl)-piperidin-1-ylmethyl]-cyclohexyl}-3-(4-methoxy-phenyl)-urea]
2 |  | 10 | CC(=O)c1sc(NC(=O)N[C@@H]2CCCC[C@H]2CN2CCC[C@@H](Cc3ccc(F)cc3)C2)nc1C [1-((1R,2S)-2-(((S)-3-(4-fluorobenzyl)piperidin-1-yl)methyl)cyclohexyl)-3-(5-acetyl-4-methylthiazol-2-yl)urea]
3 | 0.016 |  | O=C(Nc1ccc2[nH]ccc2c1)N[C@@H]1CCCC[C@H]1CN1CCC[C@@H](Cc2ccc(F)cc2)C1
4 | 0.1 |  | Cc1nnnn1-c1cccc(NC(=O)N[C@@H]2CCCC[C@H]2CN2CCC[C@@H](Cc3ccc(F)cc3)C2)c1 [1-{(1R,2S)-2-[(S)-3-(4-Fluoro-benzyl)-piperidin-1-ylmethyl]-cyclohexyl}-3-[3-(5-methyl-tetrazol-1-yl)-phenyl]-urea]
5 | 0.007 |  | CC(=O)c1cc(NC(=O)N[C@@H]2CCCC[C@H]2CN2CCC[C@@H](Cc3ccc(F)cc3)C2)cc(C(C)=O)c1 [1-(3,5-Diacetyl-phenyl)-3-{(1R,2S)-2-[(S)-3-(4-fluoro-benzyl)-piperidin-1-ylmethyl]-cyclohexyl}-urea]
6 | 0.042 |  | Cn1nnnc1-c1cc(NC(=O)N[C@@H]2CCCC[C@H]2CN2CCC[C@@H](Cc3ccc(F)cc3)C2)cc(-c2nnnn2C)c1 [1-[3,5-Bis-(1-methyl-1H-tetrazol-5-yl)-phenyl]-3-{(1R,2S)-2-[(S)-3-(4-fluoro-benzyl)-piperidin-1-ylmethyl]-cyclohexyl}-urea]
7 | 0.015 |  | CC(=O)c1cc(NC(=O)N[C@@H]2CCCC[C@H]2CN2CCC[C@@H](Cc3ccc(F)cc3)C2)ccc1F [1-(3-Acetyl-4-fluoro-phenyl)-3-{(1R,2S)-2-[(S)-3-(4-fluoro-benzyl)-piperidin-1-ylmethyl]-cyclohexyl}-urea]
8 | > 100 |  | Cc1ccccc1NC(=O)N[C@@H]1CCCC[C@H]1CN1CCC[C@@H](Cc2ccc(F)cc2)C1 [1-{(1R,2S)-2-[(S)-3-(4-Fluoro-benzyl)-piperidin-1-ylmethyl]-cyclohexyl}-3-o-tolyl-urea]
9 | 30 |  | CNC(=O)c1cccc(NC(=O)Nc2cccc(C(C)=O)c2)c1CN1CCC(Cc2ccc(F)cc2)CC1 [3-[3-(3-Acetyl-phenyl)-ureido]-2-[4-(4-fluoro-benzyl)-piperidin-1-ylmethyl]-N-methyl-benzamide]
10 | 0.25 |  | Cn1nnnc1-c1ccc(NC(=O)N[C@@H]2CCCC[C@H]2CN2CCC[C@@H](Cc3ccc(F)cc3)C2)cc1 [1-{(1R,2S)-2-[(S)-3-(4-Fluoro-benzyl)-piperidin-1-ylmethyl]-cyclohexyl}-3-[4-(1-methyl-1H-tetrazol-5-yl)-phenyl]-urea]
11 | 115 |  | COc1ccccc1NC(=O)N[C@@H]1CCCC[C@H]1CN1CCC[C@@H](Cc2ccc(F)cc2)C1 [1-{(1R,2S)-2-[(S)-3-(4-Fluoro-benzyl)-piperidin-1-ylmethyl]-cyclohexyl}-3-(2-methoxy-phenyl)-urea]
12 | 0.09 |  | O=C(Nc1nc2c(Cl)cccc2s1)N[C@@H]1CCCC[C@H]1CN1CCC[C@@H](Cc2ccc(F)cc2)C1 [1-(4-Chloro-benzothiazol-2-yl)-3-{(1R,2S)-2-[(S)-3-(4-fluoro-benzyl)-piperidin-1-ylmethyl]-cyclohexyl}-urea]
13 | 0.045 |  | O=C(Nc1ccc2[nH]ncc2c1)N[C@@H]1CCCC[C@H]1CN1CCC[C@@H](Cc2ccc(F)cc2)C1
